In patent US8486899B2, “Antioxidant” (Morinaga Milk Industry Co., Ltd., priority 2008, dated 2013):

Legend:
[1] = tested on: ApoE gene-deficient mice; test: Number of atherosclerotic lesions (plaques) in thoracic aorta of ApoE gene-deficient mice; format: in vivo; conditions: oral once a day for 39 consecutive days; for Number of plaques formed in thoracic aorta: ApoE gene-deficient mice on high-cholesterol diet, 1 ml of 30 μg/ml per 25 g body weight, Oil red staining 40 days after start; for Effect on plaque formation (in words, versus negative sample): ApoE gene-deficient mice
Protocol: In addition, it is generally known that a primary lesion of arteriosclerosis is caused by oxidized LDL. Therefore, it is also possible to evaluate the action of reducing a risk of arteriosclerosis through inhibiting formation of a lipid peroxide of the test sample by counting the number of atherosclerotic lesions (plaques) in the artery of each model mouse treated with the test sample.
In Example 2, 3-O-β-D-glucopyranosyl-4-methylergost-7-en-3-ol was evaluated on the effect of reducing a risk of arteriosclerosis through the effect of inhibiting a lipid peroxide by counting the number of atherosclerotic lesions (plaques) in the artery using known arteriosclerosis model animals, ApoE gene-deficient mice.
A test sample, a control sample, and a negative sample were prepared in the same way as in Example 1 above and were each used for a test.
(§1) Six-week-old male ApoE gene-deficient mice (purchased from Japan SLC, Inc.) were preliminarily fed with a high-cholesterol diet (manufactured by Research Diets, Inc.) for 2 weeks and divided into groups each of 15 mice.
Each of the sample solutions including the test sample, control sample, and negative sample was separately administered orally once a day for 39 consecutive days using medical probes in an amount of 1 ml per 25 g of mouse body weight. Forty days after the start of administration, the thoracic aorta part was fixed with formalin and stained with Oil red, and the number of plaques was counted.
The test results of this example are shown in Tale 2.

[2] = tested on: ApoE gene-deficient mice; format: in vivo; conditions: for Amount of lipid peroxide in blood (MDA concentration (μM)): ApoE gene-deficient mice on high-cholesterol diet, oral, once a day, 30 μg per day, serum 14 days after start of administration, TBARS assay kit; for Effect of inhibiting formation of a lipid peroxide in blood (in words, versus negative sample): ApoE gene-deficient mice, oral 30 μg per day, 14 days after start of administration
Description: The actions of inhibiting formation of a lipid peroxide of various test samples including the antioxidant of the present invention can be evaluated by using, as an index, the amount of a thiobarbituric acid (TBA) reactive substance (TBARS), for example. Specifically, it may be defined that the larger the amount of the TBARS, the larger the amount of a lipid peroxide formed.
Examples of the TBARS include malondialdehyde (MDA) which reacts with TBA under high-temperature and acidic conditions and is a natural by-product of a lipid peroxidation. An MDA-TBA adduct can be detected by measurement of an absorbance at 530 to 540 nm to perform colorimetric measurement of MDA.
Also, the action of inhibiting formation of a lipid peroxide of a test sample can be evaluated using ApoE gene-deficient mice, which are often used as model animals which develop arteriosclerosis by hypercholesterolemia (hyper-LDL-cholesterolemia) (for example, see Reference Document 1: “Saibokogaku (Cell Engineering),” Extra Issue, “Medical Experiment Manual” series, Strategy for Study of Arteriosclerosis+Hyperlipidemia, Shujunsha Co., 1st edition, 1st impression, published on Apr. 1, 1996, pp. 441-443).
Further, in the model mice, the lipid peroxide level is higher than that of normal mice, and formation of atherosclerotic lesions (plagues) in the artery is observed with time. Therefore, the action of inhibiting formation of a lipid peroxide of a test sample can be evaluated by administering the test sample to the model mice and measuring a lipid peroxide in blood of the model mice.
Model animals which develop arteriosclerosis, ApoE gene-deficient mice, were used to examine the action of inhibiting formation of a lipid peroxide of 3-O-β-D-glucopyranosyl-4-methylergost-7-en-3-ol.
3-O-β-D-glucopyranosyl-4-methylergost-7-en-3-ol manufactured in Production Example 1 above was used as a test sample, and Mevalotin (DAIICHI SANKYO COMPANY, LIMITED), which is an HMG-CoA reductase inhibitor, was used as a control sample.
Those samples were separately dissolved in physiological saline so that the concentration of each compound was 30 μg/ml and were used for a test. Note that physiological saline was used as a negative sample.
as §1
To mice of each group, the solution including the test sample, control sample, or negative sample was separately administered orally once a day for 3 consecutive days using medical probes in an amount of 1 ml per 25 g of mouse body weight. […] Then, the amount of TBARS was measured using OxiSelect TBARS Assay Kit (manufactured by […]). […]

Compound | Number of plaques formed in thoracic aorta [1] | Effect on plaque formation (in words, versus negative sample) [1] | Amount of lipid peroxide in blood (MDA concentration (μM)) [2] [µM] | Effect of inhibiting formation of a lipid peroxide in blood (in words, versus negative sample) [2] | Number of plaques formed in thoracic aorta ([1]; listed as test sample)
CC[C@H](C)C(=O)O[C@H]1C[C@H](O)C=C2C=C[C@H](C)[C@H](CC[C@@H](O)C[C@@H](O)CC(=O)[O-])[C@H]21.[Na+] [Control sample, reference compound] | 10.6 ± 3.2 | no significant difference although plaque formation was found to decrease | 0.93 ± 0.05 | a significant decrease in amount of a lipid peroxide in blood was not observed | 
CC1C(O[C@@H]2O[C@H](CO)[C@@H](O)[C@H](O)[C@H]2O)CC[C@@]2(C)C1CC=C1[C@@H]3CC[C@H]([C@H](C)CC[C@H](C)C(C)C)[C@@]3(C)CC[C@@H]12 (stereo partly drawn) [Test sample, 3-O-β-D-glucopyranosyl-4-methylergost-7-en-3-ol] | 5.8 ± 1.6 | had an effect of inhibiting plaque formation on the arterial endothelium | 0.51 ± 0.22 | the effect of inhibiting formation of a lipid peroxide in blood was clearly confirmed | 5.8
